# Key:
# [1] = test system: Gastric ulcer induced by Shay's method; test: Anti-ulcer activity - gastric ulcer in rats induced by Shay's method; format: in vivo; settings: for Diminution of the ulcer index compared with the controls: 200 mg/kg orally five times; for Number of ulcers of class I / Number of ulcers of class II / Number of ulcers of class III / Number of ulcers of class IV / Number of ulcers of class V: 13 animals; for Percentage ulcer variation in relation to controls: Table 1; for Ulcer Index: controls 75; for Product of the number of ulcers and the numerical value attributed to the class, class I / Product of the number of ulcers and the numerical value attributed to the class, class II / Product of the number of ulcers and the numerical value attributed to the class, class III / Product of the number of ulcers and the numerical value attributed to the class, class IV / Product of the number of ulcers and the numerical value attributed to the class, class V: in parentheses
# Protocol: Anti-ulcer activity - Gastric Ulcer in the rats induced by Shay's method
# The anti-ulcer activity of sericic acid and sericoside was determined by administering the compounds to rats in which gastric ulcers were induced by Shay's method. The compounds were administered at the dose of 200 mg./kg. orally five times, at 42, 30, 25 and 6 hours before tying of the pylorus and immediately after the operation and as shown in Table 1 diminished the ulcer index by 48 and 45 per cent respectively, compared with the controls.
# ^(1) Doses administered orally 5 times, 42, 30, 25 and 6 hours prior
# to and immediately after the tying of the pylorus.
# ^(2) In parentheses the product of the number of ulcers and the
# numerical value attributed to the individual classes according to the
# individual classes according to the evaluation criterion of T. O.
# Keyrilainen and M. K. Paasonen (Acta Pharmacol. et. Toxicol. 13, 22, 1957
# [2] = LD50 in mice (intraperitoneal); settings: mouse, in vivo, ip, intraperitoneal administration
# Description: The LD50 in mice (as determined with intraperitoneal administration) for sericic acid and sericoside was as follows: […]
# [3] = test system: Carragenin-induced oedema; test: Anti-inflammatory activity against carragenin-induced oedema in rats, oral administration; format: in vivo; settings: 200 mg/kg orally for 3 days; for Percentage inhibition of the oedema: 3 hours after carragenin; for Volume of oedema (Average ± S.D.): maximum volume 3 hours after carragenin, controls 0.30 ± 0.005
# Protocol: (§1) Anti-inflammatory Activity Against Carragenin-induced Oedema in Rats
# (§2) The anti-inflammatory activities of sericoside and sericic acid were determined by measuring the extent to which the oedema caused by sub-plantar administration of carragenin to rats could be inhibited by prior oral and intraperitoneal administration of the substances.
# ^(1) Doses administered orally for 3 days; on the third day the
# administration was effected two hours before the subplantar injection of
# ^(2) Maximum volume of the oedema measured 3 hours after the
# subplantar injection of carragenin.
# [4] = test system: Carragenin-induced oedema; test: Anti-inflammatory activity against carragenin-induced oedema in rats, intraperitoneal administration; format: in vivo; settings: for Volume of the oedema (Average ± S.D.): maximum volume after 3 hours
# Protocol: as §1, §2
# (1) Administration endoperitoneally 30 minutes prior to the injection of
# (2) Maximum volume measured after 3 hours.
# Experimental wounds = test: Cicatrizing activity upon experimental wounds in rats (method of Morton & Malone); format: in vivo; settings: for Healing activity compared with the controls: especially in the first days of treatment; for Percentage remargination (Average ± S.D.), Day I / Percentage remargination (Average ± S.D.), Day II / Percentage remargination (Average ± S.D.), Day III / Percentage remargination (Average ± S.D.), Day V / Percentage remargination (Average ± S.D.), Day VI: topical 10% suspension in 2% CMC, 0.1 ml/rat/day; for Percentage remargination (Average ± S.D.), Day I: control 5.2 ± 1.1; for Percentage remargination (Average ± S.D.), Day II: control 12.8 ± 1.5; for Percentage remargination (Average ± S.D.), Day III: control 21.9 ± 3.1; for Percentage remargination (Average ± S.D.), Day V: control 39.63 ± 2.3; for Percentage remargination (Average ± S.D.), Day VI: control 57.4 ± 2.1
# Protocol: Cicatrizing Activity Upon Experimental Wounds in Rats
# The cicatrizing activity of sericic acid and sericoside upon experimental wounds was determined on rats in accordance with the method of Morton & Malone (Arch. Int. Pharmacodyn. Ther. 196, 117, 1972).
# The treatment of the wounds was effected with a 10% suspension of the active principles in water containing 2% carboxymethyl cellulose (CMC). The suspensions were used in doses of 0.1 ml. for each application, one treatment being effected per day.
# Note: Topical treatment effected on each of the days on which measurement
# were taken (I, II, III, V, and VI).
# [5] = test system: Ultra-violet ray erythema; test: Activity against ultra-violet ray erythema in guinea pigs (method of Winder et al.); format: in vivo, male albino guinea pigs; settings: for Erythema Score, 2 h / Erythema Score, 4 h / Erythema Score, 6 h / Erythema Score, 8 h / Erythema Score, 22 h: 5% gel (200 mg) one hour prior to irradiation; for Erythema Score, 2 h: 0 = no erythema, 0.5 = moderate reddening, 1 = marked reddening, 2 = obvious erythema, controls 1.15 ± 0.17; for Erythema Score, 4 h: controls 2.40 ± 0.30; for Erythema Score, 6 h: controls 2.55 ± 0.34; for Erythema Score, 8 h: controls 2.35 ± 0.18; for Erythema Score, 22 h: controls 1.05 ± 0.23; for Percentage inhibition of erythema compared with the controls, 2 h / Percentage inhibition of erythema compared with the controls, 4 h / Percentage inhibition of erythema compared with the controls, 6 h / Percentage inhibition of erythema compared with the controls, 8 h / Percentage inhibition of erythema compared with the controls, 22 h: 5% gel (200 mg), in parentheses
# Protocol: Activity Against Ultra-Violet Ray Erythema
# Ultra-violet ray erythema in guinea pigs was effected in accordance with the method of Winder et al. (Arch. Int. Pharmacodyn, 106, 261, 1968).
# Sericoside and sericic acid were applied to the depilated skin of male albino guinea pigs (average weight 300 - 400 g) in the form of a 5% gel (using 200 mg. thereof) one hour prior to irradiation. The animals were depilated 18 hours prior to the irradiation and irradiated for 3 minutes with a 500 W. mercury vapor lamp at a distance of 18 cms.
# [6] = Relative solubility in chlorinated hydrocarbon and aqueous solvents; format: physicochemical; settings: chlorinated hydrocarbon solvents versus water/aqueous solvents
# [7] = 50 mg/kg endoperitoneally 30 minutes prior to carragenin
# [8] = 50 mg/kg endoperitoneally 30 minutes prior to carragenin, controls 0.31 ± 0.006
# [9] = 100 mg/kg endoperitoneally 30 minutes prior to carragenin
SMILES,Diminution of the ulcer index compared with the controls [1] [per cent],"Number of ulcers of class I ([1]; 200 mg/kg orally, 5 times)","Number of ulcers of class II ([1]; 200 mg/kg orally, 5 times)","Number of ulcers of class III ([1]; 200 mg/kg orally, 5 times)","Number of ulcers of class IV ([1]; 200 mg/kg orally, 5 times)","Number of ulcers of class V ([1]; 200 mg/kg orally, 5 times)","Percentage ulcer variation in relation to controls ([1]; 200 mg/kg orally, 5 times) [%]","Ulcer Index ([1]; 200 mg/kg orally, 5 times)","Product of the number of ulcers and the numerical value attributed to the class, class I ([1]; 200 mg/kg orally, 5 times)","Product of the number of ulcers and the numerical value attributed to the class, class II ([1]; 200 mg/kg orally, 5 times)","Product of the number of ulcers and the numerical value attributed to the class, class III ([1]; 200 mg/kg orally, 5 times)","Product of the number of ulcers and the numerical value attributed to the class, class IV ([1]; 200 mg/kg orally, 5 times)","Product of the number of ulcers and the numerical value attributed to the class, class V ([1]; 200 mg/kg orally, 5 times)",LD50 [2] [mg/kg],Percentage inhibition of the oedema [3] [%],Volume of oedema (Average ± S.D.) [3] [mL],"Percentage inhibition of the oedema [4, 7] [%]","Volume of the oedema (Average ± S.D.) [4, 8] [mL]","Percentage inhibition of the oedema [4, 9] [%]",Healing activity compared with the controls (Experimental wounds),other results
CC1(C)CC[C@]2(C(=O)O)CC[C@]3(C)C(=CC[C@@H]4[C@@]5(C)C[C@@H](O)[C@H](O)[C@](C)(CO)[C@@H]5CC[C@]43C)[C@@H]2[C@@H]1O,48,279,12,3,2,9,-45,45,279,60,30,40,180,> 1000,23,0.23 ± 0.009,25,0.23 ± 0.008,64,significant healing activity,"Volume of the oedema (Average ± S.D.) ([4]; 100 mg/kg endoperitoneally 30 minutes prior to carragenin, controls 0.31 ± 0.010): 0.11 ± 0.006 mL; Percentage remargination (Average ± S.D.), Day I (Experimental wounds): 10.4 ± 1.3%; Percentage remargination (Average ± S.D.), Day II (Experimental wounds): 23.7 ± 2.3%; Percentage remargination (Average ± S.D.), Day III (Experimental wounds): 36.9 ± 2.7%; Percentage remargination (Average ± S.D.), Day V (Experimental wounds): 48.00 ± 1.5%; Percentage remargination (Average ± S.D.), Day VI (Experimental wounds): 59.0 ± 2.2%; Erythema Score, 2 h [5]: 0.95 ± 0.12; Erythema Score, 4 h [5]: 1.80 ± 0.21; Erythema Score, 6 h [5]: 2.05 ± 0.22; Erythema Score, 8 h [5]: 1.35 ± 0.18; Erythema Score, 22 h [5]: 0.60 ± 0.10; Percentage inhibition of erythema compared with the controls, 2 h [5]: 17.4%; Percentage inhibition of erythema compared with the controls, 4 h [5]: 25%; Percentage inhibition of erythema compared with the controls, 6 h [5]: 19.6%; Percentage inhibition of erythema compared with the controls, 8 h [5]: 42.5%; Percentage inhibition of erythema compared with the controls, 22 h [5]: 42.8%; Relative solubility [6]: generally more soluble in chlorinated hydrocarbon solvents than in water"
CC1(C)CC[C@]2(C(=O)OC3O[C@H](CO)[C@@H](O)[C@H](O)[C@H]3O)CC[C@]3(C)C(=CC[C@@H]4[C@@]5(C)C[C@@H](O)[C@H](O)[C@](C)(CO)[C@@H]5CC[C@]43C)[C@@H]2[C@@H]1O (some centres unmarked),45,369,15,1,0,3,-48,39.5,369,75,10,0,60,> 1000,26,0.22 ± 0.010,35,0.20 ± 0.005,67,significant healing activity,"Number of non-ulcerated stomachs (per cent) ([1]; 200 mg/kg orally, 5 times): 7.6 per cent; Percentage remargination (Average ± S.D.), Day I (Experimental wounds): 13.9 ± 1.4%; Percentage remargination (Average ± S.D.), Day II (Experimental wounds): 23.7 ± 1.5%; Percentage remargination (Average ± S.D.), Day III (Experimental wounds): 36.8 ± 2.0%; Percentage remargination (Average ± S.D.), Day V (Experimental wounds): 53.30 ± 2.8%; Percentage remargination (Average ± S.D.), Day VI (Experimental wounds): 68.2 ± 2.1%; Erythema Score, 2 h [5]: 0.75 ± 0.17; Erythema Score, 4 h [5]: 1.70 ± 0.23; Erythema Score, 6 h [5]: 1.95 ± 0.22; Erythema Score, 8 h [5]: 1.30 ± 0.25; Erythema Score, 22 h [5]: 0.70 ± 0.15; Percentage inhibition of erythema compared with the controls, 2 h [5]: 34.8%; Percentage inhibition of erythema compared with the controls, 4 h [5]: 29.2%; Percentage inhibition of erythema compared with the controls, 6 h [5]: 23.5%; Percentage inhibition of erythema compared with the controls, 8 h [5]: 44.7%; Percentage inhibition of erythema compared with the controls, 22 h [5]: 33.3%; Relative solubility [6]: generally more soluble in aqueous solvents than chlorinated hydrocarbons"

# Reference: patent US4103025A, “Novel terpenes” (Inverni Della Beffa S.p.A., priority 1974, dated 1978)
